Measurements taken from US20120282187A1 (BOEHRINGER INGELHEIM INTERNATIONAL GMBH, priority 2008, published 2012).
Like-named read-outs stand apart in the source and are kept apart here. Marks after values point to notes of the source that are not given here.

Tested on: patients with atrial fibrillation
[1] = PETRO-Ex, including bleeding and thrombotic events

Question: How did the “ALT or AST >5xULN, rate” value (300 mg b.i.d.) turn out when `CCCCCCOC(=O)NC(=N)c1ccc(NCc2nc3cc(C(=O)N(CCC(=O)OCC)c4ccccn4)ccc3n2C)cc1` [Dabigatran etexilate, 1-methyl-2-[N-[4-(N-n-hexyloxycarbonylamidino)phenyl]aminomethyl]benzimidazol-5-ylcarboxylic acid-N-(2-pyridyl)-N-(2-ethoxycarbonylethyl)amides] was run?
Answer: 1.2 per 100 patient-years

Question: What about the “Adverse Events leading to premature discontinuation, number” value (from here on “Adverse Events leading … number”) (300 mg b.i.d.) of the same molecule?
Answer: 21

Question: And the “Adverse Events leading to premature discontinuation, rate” value (“Adverse Events leading … rate” below) (300 mg b.i.d.)?
Answer: 25.6 per 100 patient-years

Question: What about the “MI, number” value (300 mg b.i.d.) of the same molecule?
Answer: 0

Question: What about the “Major Bleeds with aspirin, number” value (300 mg b.i.d.) of the same molecule?
Answer: 6

Question: What about the “Major Bleeds with aspirin, rate” value (300 mg b.i.d.) of the same molecule?
Answer: 32.7 per 100 patient-years

Question: And the “Major Bleeds without aspirin, number” value (300 mg b.i.d.)?
Answer: 4

Question: And the “Major Bleeds without aspirin, rate” value (300 mg b.i.d.)?
Answer: 6.3 per 100 patient-years

Question: And the “Major Bleeds, number” value (300 mg b.i.d.)?
Answer: 10

Question: And the “Major Bleeds, rate” value (300 mg b.i.d.)?
Answer: 12.2 per 100 patient-years

Question: What about the Major bleeding events (300 mg b.i.d.) of the same molecule?
Answer: 12.2 % per year

Question: What about the “Other MACE, number” value (300 mg b.i.d.) of the same molecule?
Answer: 1

Question: What about the “Stroke and Systemic Thromboembolism, number” value (300 mg b.i.d.) of the same molecule?
Answer: 1

Question: What about the “TIA, number” value (300 mg b.i.d.) of the same molecule?
Answer: 0

Question: What about the bleeding events (300 mg b.i.d.) of the same molecule?
Answer: more than 12 per 100 years

Question: And the “ALT or AST >2xULN, number” value (300 mg q.d.)?
Answer: 3

Question: And the “ALT or AST >2xULN, rate” value (300 mg q.d.)?
Answer: 1.5 per 100 patient-years

Question: What about the “ALT or AST >3xULN and Bili >2xULN within 30 days, number” value (300 mg q.d.) of the same molecule?
Answer: 1

Question: And the “ALT or AST >3xULN and Bili >2xULN within 30 days, rate” value (300 mg q.d.)?
Answer: 0.5 per 100 patient-years

Question: What about the “ALT or AST >3xULN, number” value (300 mg q.d.) of the same molecule?
Answer: 3

Question: And the “ALT or AST >3xULN, rate” value (300 mg q.d.)?
Answer: 1.5 per 100 patient-years

Question: And the “ALT or AST >5xULN, number” value (300 mg q.d.)?
Answer: 3

Question: And the “ALT or AST >5xULN, rate” value (300 mg q.d.)?
Answer: 1.5 per 100 patient-years

Question: And the “Adverse Events leading … number” value (300 mg q.d.)?
Answer: 19

Question: What about the “Adverse Events leading … rate” value (300 mg q.d.) of the same molecule?
Answer: 9.6 per 100 patient-years

Question: What about the “MI, number” value (300 mg q.d.) of the same molecule?
Answer: 1

Question: What about the “Major Bleeds with aspirin, number” value (300 mg q.d.) of the same molecule?
Answer: 2

Question: What about the “Major Bleeds with aspirin, rate” value (300 mg q.d.) of the same molecule?
Answer: 3.6 per 100 patient-years

Question: And the “Major Bleeds without aspirin, number” value (300 mg q.d.)?
Answer: 3

Question: And the “Major Bleeds without aspirin, rate” value (300 mg q.d.)?
Answer: 2.1 per 100 patient-years

Question: And the “Major Bleeds, number” value (300 mg q.d.)?
Answer: 5

Question: And the “Major Bleeds, rate” value (300 mg q.d.)?
Answer: 2.5 per 100 patient-years

Question: What about the Major bleeding events (300 mg q.d.) of the same molecule?
Answer: 2.5 % per year

Question: What about the “Other MACE, number” value (300 mg q.d.) of the same molecule?
Answer: 1

Question: What about the “Stroke and Systemic Thromboembolism, number” value (300 mg q.d.) of the same molecule?
Answer: 5

Question: What about the “TIA, number” value (300 mg q.d.) of the same molecule?
Answer: 0

Question: What about the “fatal major bleeds, number” value (300 mg q.d.) of the same molecule?
Answer: 1

Question: What about the tolerability (300 mg twice daily) of the same molecule?
Answer: not tolerable

Question: And the “Serious adverse events: cardiac disorders” value (PETRO-Ex)?
Answer: 22%

Question: What about the “Serious adverse events: cardiac disorders, pts” value (PETRO-Ex) of the same molecule?
Answer: 80

Question: What about the “Serious adverse events: gastrointestinal disorders” value (PETRO-Ex) of the same molecule?
Answer: 7.8%

Question: What about the “Serious adverse events: gastrointestinal disorders, pts” value (PETRO-Ex) of the same molecule?
Answer: 28

Question: What about the “Serious adverse events: infections” value (PETRO-Ex) of the same molecule?
Answer: 9.4%

Question: What about the “Serious adverse events: infections, pts” value (PETRO-Ex) of the same molecule?
Answer: 34

Question: And the “Serious adverse events: nervous system disorders” value (PETRO-Ex)?
Answer: 9.1%

Question: And the “Serious adverse events: nervous system disorders, pts” value (PETRO-Ex)?
Answer: 33

Question: And the “Major bleeding events (per 100 patient years)” value (PETRO-Ex, 150 mg b.i.d., without concomitant aspirin)?
Answer: 3.2%*

Question: What about the “LFT abnormalities >3 x-ULN (per 100 patient years)” value (PETRO-Ex, All doses) of the same molecule?
Answer: 1.7%

Question: What about the Serious adverse events [1] of the same molecule?
Answer: 51%

Question: What about the “Serious adverse events, patients” value [1] of the same molecule?
Answer: 184

Question: What about the “ALT or AST >2xULN, number” value (Total (all doses)) of the same molecule?
Answer: 30

Question: And the “ALT or AST >2xULN, rate” value (Total (all doses))?
Answer: 2.9 per 100 patient-years

Question: What about the “ALT or AST >3xULN and Bili >2xULN within 30 days, number” value (Total (all doses)) of the same molecule?
Answer: 4

Question: What about the “ALT or AST >3xULN and Bili >2xULN within 30 days, rate” value (Total (all doses)) of the same molecule?
Answer: 0.4 per 100 patient-years

Question: And the “ALT or AST >3xULN, number” value (Total (all doses))?
Answer: 18

Question: What about the “ALT or AST >3xULN, rate” value (Total (all doses)) of the same molecule?
Answer: 1.7 per 100 patient-years

Question: And the “ALT or AST >5xULN, number” value (Total (all doses))?
Answer: 11

Question: What about the “ALT or AST >5xULN, rate” value (Total (all doses)) of the same molecule?
Answer: 1.1 per 100 patient-years

Question: What about the “Adverse Events leading … number” value (Total (all doses)) of the same molecule?
Answer: 120

Question: What about the “Adverse Events leading … rate” value (Total (all doses)) of the same molecule?
Answer: 11.5 per 100 patient-years

Question: What about the “MI, number” value (Total (all doses)) of the same molecule?
Answer: 7

Question: And the “Major Bleeds with aspirin, number” value (Total (all doses))?
Answer: 19

Question: And the “Major Bleeds with aspirin, rate” value (Total (all doses))?
Answer: 8.5 per 100 patient-years

Question: What about the “Major Bleeds without aspirin, number” value (Total (all doses)) of the same molecule?
Answer: 26

Question: What about the “Major Bleeds without aspirin, rate” value (Total (all doses)) of the same molecule?
Answer: 3.2 per 100 patient-years

Question: And the “Major Bleeds, number” value (Total (all doses))?
Answer: 44

Question: What about the “Major Bleeds, rate” value (Total (all doses)) of the same molecule?
Answer: 4.2 per 100 patient-years

Question: And the “Other MACE, number” value (Total (all doses))?
Answer: 11

Question: And the “Stroke and Systemic Thromboembolism, number” value (Total (all doses))?
Answer: 20

Question: What about the “TIA, number” value (Total (all doses)) of the same molecule?
Answer: 1

Question: What about the “ALT or AST >3xULN and Bili >2xULN within 30 days, number” value (Total (all doses), listed as dabigatran etexilate) of the same molecule?
Answer: four

Question: What about the “concomitant bilirubin elevation >2xULN within 30 days of transaminase elevations >3xULN” value (all doses) of the same molecule?
Answer: 0.4 % per year

Question: And the “elevated liver transaminases, AST or ALT >3xULN” value (all doses)?
Answer: 1.7 % per year

Question: And the “fatal intracranial bleeds, number” value (all doses)?
Answer: Three

Question: And the “fatal major bleeds, number” value (all doses)?
Answer: Five

Question: What about the “transaminases (AST or ALT) >5xULN” value (all doses) of the same molecule?
Answer: 1.1 % per year

Question: What about the “bleeding event risk ratio” value (concomitant aspirin vs. none) of the same molecule?
Answer: 2.70

Question: What about the major bleed rate (doses ≦150 mg/day (150 mg q.d. combined with 50 mg b.i.d.)) of the same molecule?
Answer: 3.7 % per year

Question: What about the bleeding event rate (on concomitant aspirin) of the same molecule?
Answer: 8.5 % per year

Question: What about the bleeding event rate (without concomitant aspirin) of the same molecule?
Answer: 3.2 % per year
